From the supplement of paper PMC10307832

Key:
Experiment in all cases: relative viability (nuclei count vs DMSO), 5 days (fraction); higher = more cells survive
NCI-H2085 = test system: NCI-H2085
Procedure, shortened: (§1)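 Lung cancer cell lines were pin-tool dosed in 1536-well plates on the day after seeding, with either a lone drug or a fixed anchor-drug dose plus five library-drug doses (not always all listed) in √10 steps. Nuclei were counted on 4× images after 5 days. Relative viability is the ratio of treated-well to vehicle-well nuclei counts, with each value a median of duplicate plates.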

HCC-78 = test system: HCC-78
Procedure, shortened: as §1

HCC-15 = test system: HCC-15
Procedure, shortened: as §1

NCI-H2347 = test system: NCI-H2347
Procedure, shortened: as §1

NCI-H358 = test system: NCI-H358
Procedure, shortened: as §1

NCI-H1993 = test system: NCI-H1993
Procedure, shortened: as §1

NCI-H650 = test system: NCI-H650
Procedure, shortened: as §1

HARA = test system: HARA
Procedure, shortened: as §1

NCI-H460 = test system: NCI-H460
Procedure, shortened: as §1

ABC-1 = test system: ABC-1
Procedure, shortened: as §1

NCI-H838 = test system: NCI-H838
Procedure, shortened: as §1

NCI-H2009 = test system: NCI-H2009
Procedure, shortened: as §1

SW 1573 = test system: SW 1573
Procedure, shortened: as §1

NCI-H1915 = test system: NCI-H1915
Procedure, shortened: as §1

LU99A = test system: LU99A
Procedure, shortened: as §1

LC-2-ad = test system: LC-2-ad
Procedure, shortened: as §1

NCI-H2126 = test system: NCI-H2126
Procedure, shortened: as §1

NCI-H1651 = test system: NCI-H1651
Procedure, shortened: as §1

UMC-11 = test system: UMC-11
Procedure, shortened: as §1

EPLC-272H = test system: EPLC-272H
Procedure, shortened: as §1

COR-L23 = test system: COR-L23
Procedure, shortened: as §1

PC-14 = test system: PC-14
Procedure, shortened: as §1

Compound: Clc1ccc(Nc2nnc(Cc3ccncc3)c3ccccc23)cc1 [Vatalanib] + CS(=O)(=O)CCNCc1ccc(-c2ccc3ncnc(Nc4ccc(OCc5cccc(F)c5)c(Cl)c4)c3c2)o1 [Lapatinib] (partner 2 µM)
- relative viability (NCI-H2085; first compound 0.04 µM): 0.818
- relative viability (NCI-H2085; first compound 0.1265 µM): 0.736
- relative viability (NCI-H2085; first compound 0.4 µM): 0.891
- relative viability (NCI-H2085; first compound 1.265 µM): 0.701
- relative viability (NCI-H2085; first compound 4 µM): 0.723
- relative viability (HCC-78; first compound 0.04 µM): 0.694
- relative viability (HCC-78; first compound 0.1265 µM): 0.634
- relative viability (HCC-78; first compound 0.4 µM): 0.937
- relative viability (HCC-78; first compound 4 µM): 0.478
- relative viability (HCC-15; first compound 0.04 µM): 0.874
- relative viability (HCC-15; first compound 0.1265 µM): 0.699
- relative viability (HCC-15; first compound 0.4 µM): 0.853
- relative viability (HCC-15; first compound 1.265 µM): 0.825
- relative viability (HCC-15; first compound 4 µM): 0.837
- relative viability (NCI-H2347; first compound 0.04 µM): 1.01
- relative viability (NCI-H2347; first compound 0.1265 µM): 0.858
- relative viability (NCI-H2347; first compound 0.4 µM): 0.931
- relative viability (NCI-H2347; first compound 1.265 µM): 0.907
- relative viability (NCI-H2347; first compound 4 µM): 0.833
- relative viability (NCI-H358; first compound 0.04 µM): 0.498
- relative viability (NCI-H358; first compound 0.1265 µM): 0.429
- relative viability (NCI-H358; first compound 0.4 µM): 0.564
- relative viability (NCI-H358; first compound 1.265 µM): 0.355
- relative viability (NCI-H358; first compound 4 µM): 0.457
- relative viability (NCI-H1993; first compound 0.04 µM): 0.909
- relative viability (NCI-H1993; first compound 0.1265 µM): 0.721
- relative viability (NCI-H1993; first compound 0.4 µM): 0.828
- relative viability (NCI-H1993; first compound 1.265 µM): 0.755
- relative viability (NCI-H1993; first compound 4 µM): 0.747
- relative viability (NCI-H650; first compound 0.04 µM): 0.694
- relative viability (NCI-H650; first compound 0.1265 µM): 0.784
- relative viability (NCI-H650; first compound 1.265 µM): 0.784
- relative viability (NCI-H650; first compound 4 µM): 0.911
- relative viability (HARA; first compound 0.04 µM): 0.583
- relative viability (HARA; first compound 0.1265 µM): 0.694
- relative viability (HARA; first compound 0.4 µM): 0.746
- relative viability (HARA; first compound 1.265 µM): 0.731
- relative viability (HARA; first compound 4 µM): 0.948
- relative viability (NCI-H460; first compound 0.04 µM): 1.04
- relative viability (NCI-H460; first compound 0.1265 µM): 0.848
- relative viability (NCI-H460; first compound 0.4 µM): 0.931
- relative viability (NCI-H460; first compound 1.265 µM): 0.845
- relative viability (NCI-H460; first compound 4 µM): 0.898
- relative viability (ABC-1; first compound 0.04 µM): 1.33
- relative viability (ABC-1; first compound 0.1265 µM): 0.931
- relative viability (ABC-1; first compound 0.4 µM): 1.16
- relative viability (ABC-1; first compound 1.265 µM): 1.23
- relative viability (ABC-1; first compound 4 µM): 1.05
- relative viability (NCI-H838; first compound 0.04 µM): 1.06
- relative viability (NCI-H838; first compound 0.1265 µM): 0.944
- relative viability (NCI-H838; first compound 0.4 µM): 1.09
- relative viability (NCI-H838; first compound 1.265 µM): 0.841
- relative viability (NCI-H838; first compound 4 µM): 0.961
- relative viability (NCI-H2009; first compound 0.04 µM): 1.03
- relative viability (NCI-H2009; first compound 0.1265 µM): 0.868
- relative viability (NCI-H2009; first compound 0.4 µM): 1.1
- relative viability (NCI-H2009; first compound 1.265 µM): 0.894
- relative viability (NCI-H2009; first compound 4 µM): 0.919
- relative viability (SW 1573; first compound 0.04 µM): 1.29
- relative viability (SW 1573; first compound 0.1265 µM): 0.942
- relative viability (SW 1573; first compound 0.4 µM): 1.23
- relative viability (SW 1573; first compound 1.265 µM): 1.04
- relative viability (SW 1573; first compound 4 µM): 1.05
- relative viability (NCI-H1915; first compound 0.04 µM): 0.974
- relative viability (NCI-H1915; first compound 0.1265 µM): 0.88
- relative viability (NCI-H1915; first compound 0.4 µM): 0.839
- relative viability (NCI-H1915; first compound 1.265 µM): 0.93
- relative viability (NCI-H1915; first compound 4 µM): 1.01
- relative viability (LU99A; first compound 0.04 µM): 0.893
- relative viability (LU99A; first compound 0.1265 µM): 0.986
- relative viability (LU99A; first compound 0.4 µM): 1.16
- relative viability (LU99A; first compound 1.265 µM): 0.831
- relative viability (LU99A; first compound 4 µM): 0.92
- relative viability (LC-2-ad; first compound 0.04 µM): 0.977
- relative viability (LC-2-ad; first compound 0.1265 µM): 0.865
- relative viability (LC-2-ad; first compound 0.4 µM): 0.952
- relative viability (LC-2-ad; first compound 1.265 µM): 0.936
- relative viability (LC-2-ad; first compound 4 µM): 0.901
- relative viability (NCI-H2126; first compound 0.04 µM): 0.787
- relative viability (NCI-H2126; first compound 0.1265 µM): 0.823
- relative viability (NCI-H2126; first compound 0.4 µM): 0.773
- relative viability (NCI-H2126; first compound 1.265 µM): 0.744
- relative viability (NCI-H2126; first compound 4 µM): 0.71
- relative viability (NCI-H1651; first compound 0.04 µM): 0.921
- relative viability (NCI-H1651; first compound 0.1265 µM): 0.868
- relative viability (NCI-H1651; first compound 0.4 µM): 0.947
- relative viability (NCI-H1651; first compound 1.265 µM): 0.899
- relative viability (NCI-H1651; first compound 4 µM): 0.835
- relative viability (UMC-11; first compound 0.04 µM): 0.924
- relative viability (UMC-11; first compound 0.1265 µM): 0.941
- relative viability (UMC-11; first compound 0.4 µM): 0.976
- relative viability (UMC-11; first compound 1.265 µM): 0.975
- relative viability (UMC-11; first compound 4 µM): 1.13
- relative viability (EPLC-272H; first compound 0.04 µM): 0.931
- relative viability (EPLC-272H; first compound 0.1265 µM): 0.9
- relative viability (EPLC-272H; first compound 0.4 µM): 0.23
- relative viability (EPLC-272H; first compound 1.265 µM): 0.985
- relative viability (EPLC-272H; first compound 4 µM): 1.01
- relative viability (COR-L23; first compound 0.04 µM): 0.848
- relative viability (COR-L23; first compound 0.1265 µM): 0.753
- relative viability (COR-L23; first compound 0.4 µM): 1.01
- relative viability (COR-L23; first compound 1.265 µM): 1.07
- relative viability (COR-L23; first compound 4 µM): 0.868
- relative viability (PC-14; first compound 0.04 µM): 0.377
- relative viability (PC-14; first compound 0.1265 µM): 0.306
- relative viability (PC-14; first compound 0.4 µM): 0.334
- relative viability (PC-14; first compound 1.265 µM): 0.315
- relative viability (PC-14; first compound 4 µM): 0.288
